# Test system: HCT116 MTAP-/- cells
# Test: Cell growth inhibition test (SRB staining)
# Type: cell-based
# Settings: Homo sapiens, HCT-116, 144 h, read-out: HCT116 MTAP-/- cell growth inhibition (GI50, nM)
# Procedure: The synthetic compounds above were tested for cell growth inhibition against HCT116 cells.
# HCT116 MTAP-/- (homozygous knockout of MTAP gene in HCT116 MTAP-WT cells by CRISPER/Cas9 method) cells were maintained in RPMI1640 medium containing 10 % FBS and 1 % penicillin-streptomycin. Approximately 5×10^2 cells were seeded in a 96-well plate and treated with a test compound. (0.64 nM - 2,000 nM, 6 dose points for HCT116 MTAP-/- cells for 5x and 6 days) cell growth was measured by SRB staining and absorbance was detected at 540 nm on a Synergy™ NEO microplate reader. The 50 % growth inhibition value (GI50) of the cell line was calculated using GraphPad Prism V9 software.
row,SMILES,GI50
1,"Cn1c(Cc2ccccc2)nc2c(=O)n(-c3ccccc3)c3cc(Cl)ccc3c21 [Compound 1, 2-benzyl-7-chloro-1-methyl-5-phenyl-1,5-dihydro-4H-imidazo[4,5-c]quinolin-4-one]",100 to 500 nM

# Same assay, conditions: Homo sapiens, HCT-116, 144 h; HCT116 MTAP-/- cells, 0.64 nM - 2,000 nM, 6 dose points, 6 days, SRB staining, absorbance at 540 nm; read-out: HCT116 MTAP-/- cell growth inhibition (GI50)
row,SMILES,GI50
1,"COc1ccc2c3c(nc(Cc4ccc(OC(F)F)cc4)n3C)c(=O)n(-c3cccnc3C)c2n1 [Compound 63, 2-(4-(difluoromethoxy)benzyl)-7-methoxy-1-methyl-5-(2-methylpyridin-3-yl)-1,5-dihydro-4H-imidazo[4,5-c][1,8]naphthyridin-4-one]",< 100 nM
2,"COc1ccc(Sc2nc3c(=O)n(-c4cccnc4C)c4cc(Cl)ccc4c3n2C)cc1 [Compound 35, 7-chloro-2-((4-methoxyphenyl)thio)-1-methyl-5-(2-methylpyridin-3-yl)-1,5-dihydro-4H-imidazo[4,5-c]quinolin-4-one]",< 100 nM
3,"COc1ccc(Cc2nc3c(=O)n(-c4cccnc4C)c4cc(Cl)ccc4c3n2C)cc1 [Compound 21, 7-chloro-2-(4-methoxybenzyl)-1-methyl-5-(2-methylpyridin-3-yl)-1,5-dihydro-4H-imidazo[4,5-c]quinolin-4-one]",< 100 nM
4,"Cc1ncccc1-n1c(=O)c2nc(Sc3ccc(F)cc3)n(C)c2c2ccc(C(F)(F)F)nc21 [Compound 60, 2-((4-fluorophenyl)thio)-1-methyl-5-(2-methylpyridin-3-yl)-7-(trifluoromethyl)-1,5-dihydro-4H-imidazo[4,5-c][1,8]naphthyridin-4-one]",100 to 500 nM
5,"CCc1ccc2c3c(nc(Cc4ccc(OC(F)F)cc4)n3C)c(=O)n(-c3cccnc3C)c2n1 [Compound 65, 2-(4-(difluoromethoxy)benzyl)-7-ethyl-1-methyl-5-(2-methylpyridin-3-yl)-1,5-dihydro-4H-imidazo[4,5-c][1,8]naphthyridin-4-one]",< 100 nM
6,"COc1ccc(Cc2nc3c(=O)n(-c4cccnc4C)c4nc(OC)ccc4c3n2C)cc1 [Compound 64, 7-methoxy-2-(4-methoxybenzyl)-1-methyl-5-(2-methylpyridin-3-yl)-1,5-dihydro-4H-imidazo[4,5-c][1,8]naphthyridin-4-one]",< 100 nM
7,"COc1ccc(Sc2nc3c(=O)n(-c4cccnc4C)c4nc(C(F)(F)F)ncc4c3n2C)cc1 [Compound 61, 2-((4-methoxyphenyl)thio)-1-methyl-5-(2-methylpyridin-3-yl)-7-(trifluoromethyl)-1,5-dihydro-4H-imidazo[4',5':4,5]pyrido[2,3-d]pyrimidin-4-one]",< 100 nM
8,"COc1ccc(Cc2nc3c(=O)n(-c4cccnc4C)c4ccccc4c3n2C)cc1 [Compound 22, 2-(4-methoxybenzyl)-1-methyl-5-(2-methylpyridin-3-yl)-1,5-dihydro-4H-imidazo[4,5-c]quinolin-4-one]",500 to 1000 nM
9,"COc1ccc2c3c(nc(Cc4ccc(OC(F)F)cc4)n3C)c(=O)n(-c3cccnc3C)c2c1 [Compound 55, 2-(4-(Difluoromethoxy)benzyl)-7-methoxy-1-methyl-5-(2-methylpyridin-3-yl)-1,5-dihydro-4H-imidazo[4,5-c]quinolin-4-one]",< 100 nM
10,"COc1ccc(Sc2nc3c(=O)n(-c4ccc(OC)cc4)c4cc(Cl)ccc4c3n2C)cc1 [Compound 34, 7-chloro-5-(4-methoxyphenyl)-2-((4-methoxyphenyl)thio)-1-methyl-1,5-dihydro-4H-imidazo[4,5-c]quinolin-4-one]",> 1000 nM
11,"CCc1ccc2c3c(nc(Cc4ccc(OC)cc4)n3C)c(=O)n(-c3cccnc3C)c2c1 [Compound 45, 7-Ethyl-2-(4-methoxybenzyl)-1-methyl-5-(2-methylpyridin-3-yl)-1,5-dihydro-4H-imidazo[4,5-c]quinolin-4-one]",< 100 nM
12,"CNc1ccc2c3c(nc(Cc4ccc(OC)cc4)n3C)c(=O)n(-c3cccnc3C)c2c1 [Compound 53, 2-(4-methoxybenzyl)-1-methyl-7-(methylamino)-5-(2-methylpyridin-3-yl)-1,5-dihydro-4H-imidazo[4,5-c]quinolin-4-one]",< 100 nM
13,"Cc1ncccc1-n1c(=O)c2nc(Cc3ccc(OC(F)F)cc3)n(C)c2c2ccc(C(F)(F)F)nc21 [Compound 58, 2-(4-(Difluoromethoxy)benzyl)-1-methyl-5-(2-methylpyridin-3-yl)-7-(trifluoromethyl)-1,5-dihydro-4H-imidazo[4,5-c][1,8]naphthyridin-4-one]",< 100 nM
14,"COc1ccc(Cc2nc3c(=O)n(-c4ccccc4)c4nc(NCC(F)(F)F)ccc4c3n2C)cc1 [Compound 15, 2-(4-methoxybenzyl)-1-methyl-5-phenyl-7-((2,2,2-trifluoroethyl)amino)-1,5-dihydro-4H-imidazo[4,5-c][1,8]naphthyridin-4-one]",> 1000 nM
15,"COc1ccc(Cc2nc3c(=O)n(-c4cccnc4C)c4cc(C(C)C)ccc4c3n2C)cc1 [Compound 48, 7-isopropyl-2-(4-methoxybenzyl)-1-methyl-5-(2-methylpyridin-3-yl)-1,5-dihydro-4H-imidazo[4,5-c]quinolin-4-one]",100 to 500 nM
16,"CCOc1ncc2c3c(nc(Cc4ccc(OC)cc4)n3C)c(=O)n(-c3cccnc3C)c2n1 [Compound 62, 7-ethoxy-2-(4-methoxybenzyl)-1-methyl-5-(2-methylpyridin-3-yl)-1,5-dihydro-4H-imidazo[4',5':4,5]pyrido[2,3-d]pyrimidin-4-one]",> 1000 nM
17,"COc1ccc(Cc2nc3c(=O)n(-c4cccnc4C)c4cc(OC)ccc4c3n2C)cc1 [Compound 51, 7-methoxy-2-(4-methoxybenzyl)-1-methyl-5-(2-methylpyridin-3-yl)-1,5-dihydro-4H-imidazo[4,5-c]quinolin-4-one]",< 100 nM
18,"CCc1ccc2c3c(nc(Cc4ccc(OC(F)F)cc4)n3C)c(=O)n(-c3cccnc3C)c2c1 [Compound 54, 2-(4-(difluoromethoxy)benzyl)-7-ethyl-1-methyl-5-(2-methylpyridin-3-yl)-1,5-dihydro-4H-imidazo[4,5-c]quinolin-4-one]",< 100 nM
19,"C=Cc1ccc2c3c(nc(Cc4ccc(OC)cc4)n3C)c(=O)n(-c3cccnc3C)c2c1 [Compound 44, 2-(4-methoxybenzyl)-1-methyl-5-(2-methylpyridin-3-yl)-7-vinyl-1,5-dihydro-4H-imidazo[4,5-c]quinolin-4-one]",< 100 nM
20,"COc1ccc(Sc2nc3c(=O)n(-c4cccnc4C)c4nc(C(F)(F)F)ccc4c3n2C)cc1 [Compound 59, 2-((4-methoxyphenyl)thio)-1-methyl-5-(2-methylpyridin-3-yl)-7-(trifluoromethyl)-1,5-dihydro-4H-imidazo[4,5-c][1,8]naphthyridin-4-one]",< 100 nM

# Further lines, results first:
row,GI50,SMILES
1,> 1000 nM,"COc1ccc(Cc2nc3c(=O)n(-c4ccc(Cl)c(F)c4)c4cc(Cl)ccc4c3n2C)cc1 [Compound 16, 7-chloro-5-(4-chloro-3-fluorophenyl)-2-(4-methoxybenzyl)-1-methyl-1,5-dihydro-4H-imidazo[4,5-c]quinolin-4-one]"
2,> 1000 nM,"COc1ccc(Cc2nc3c(=O)n(-c4ccc(F)c(Cl)c4)c4cc(Cl)ccc4c3n2C)cc1 [Compound 17, 7-chloro-5-(3-chloro-4-fluorophenyl)-2-(4-methoxybenzyl)-1-methyl-1,5-dihydro-4H-imidazo[4,5-c]quinolin-4-one]"
3,500 to 1000 nM,"COc1ccc([S+]([O-])c2nc3c(=O)n(-c4ccccc4)c4cc(Cl)ccc4c3n2C)cc1 (centres unmarked) [Compound 20, 7-chloro-2-((4-methoxyphenyl)sulfinyl)-1-methyl-5-phenyl-1,5-dihydro-4H-imidazo[4,5-c]quinolin-4-one]"
4,> 1000 nM,"COc1ccc(N(C)c2nc3c(=O)n(-c4ccccc4)c4cc(Cl)ccc4c3n2C)cc1 [Compound 41, 7-chloro-2-((4-methoxyphenyl)(methyl)amino)-1-methyl-5-phenyl-1,5-dihydro-4H-imidazo[4,5-c]quinolin-4-one]"
5,100 to 500 nM,"COc1ccc(Cc2nc3c(=O)n(-c4ccccc4Cl)c4cc(Cl)ccc4c3n2C)cc1 [Compound 26, 7-chloro-5-(2-chlorophenyl)-2-(4-methoxybenzyl)-1-methyl-1,5-dihydro-4H-imidazo[4,5-c]quinolin-4-one]"
6,< 100 nM,"Cc1ncccc1-n1c(=O)c2nc(Cc3ccc(F)cc3)n(C)c2c2ccc(Cl)cc21 [Compound 28, 7-chloro-2-(4-fluorobenzyl)-1-methyl-5-(2-methylpyridin-3-yl)-1,5-dihydro-4H-imidazo[4,5-c]quinolin-4-one]"
7,100 to 500 nM,"COc1ccccc1Cc1nc2c(=O)n(-c3ccccc3)c3cc(Cl)ccc3c2n1C [Compound 5, 7-chloro-2-(2-methoxybenzyl)-1-methyl-5-phenyl-1,5-dihydro-4H-imidazo[4,5-c]quinolin-4-one]"
8,< 100 nM,"COc1ccc(Sc2nc3c(=O)n(-c4ccccc4)c4cc(Cl)ccc4c3n2C)cc1 [Compound 18, 7-chloro-2-((4-methoxyphenyl)thio)-1-methyl-5-phenyl-1,5-dihydro-4H-imidazo[4,5-c]quinolin-4-one]"
9,100 to 500 nM,"Cn1c(Cc2ccc(Cl)cc2)nc2c(=O)n(-c3ccccc3)c3cc(Cl)ccc3c21 [Compound 6, 7-chloro-2-(4-chlorobenzyl)-1-methyl-5-phenyl-1,5-dihydro-4H-imidazo[4,5-c]quinolin-4-one]"
10,> 1000 nM,"COc1ccc(Cc2nc3c(=O)n(-c4ccc(F)cc4)c4cc(Cl)ccc4c3n2C)cc1 [Compound 32, 7-chloro-5-(4-fluorophenyl)-2-(4-methoxybenzyl)-1-methyl-1,5-dihydro-4H-imidazo[4,5-c]quinolin-4-one]"
11,> 1000 nM,"Cn1c(CCc2ccccc2)nc2c(=O)n(-c3ccccc3)c3cc(Cl)ccc3c21 [Compound 9, 7-chloro-1-methyl-2-phenethyl-5-phenyl-1,5-dihydro-4H-imidazo[4,5-c]quinolin-4-one]"
